From patent publication US20220365069A1, “ATP-BASED CELL SORTING AND HYPERPROLIFERATIVE CANCER STEM CELLS” (LUNELLA BIOTECH, INC., priority 2019, published 2022) come the findings set out here.

Experiment [1] concerns ATP-high MCF7 cells. Description: 3D-mammosphere assay, drug sensitivity of ATP-high MCF7 sub-population. Type of experiment: cell-based, human. The text has this: (§1) MCF7 cells in the ATP-high subpopulation show a multi-drug resistance phenotype. The 3D-mammosphere assay was used to explore the differential sensitivity of ATP-high and ATP-low MCF7 cell sub-populations to four different classes of drugs, using as a functional readout of drug-resistance. The drug classes include Tamoxifen, doxycycline, DPI, and Palbociclib.
(§2) Flow Cytometry after Vital Staining with ATP-Red 1: Human breast cancer cell lines were first grown either as a 2D-monolayer or as 3D-spheroids. Then the cells were collected and dissociated into a single-cell suspension, prior to analysis or sorting by flow-cytometry with a SONY SH800 Cell Sorter. Briefly, ATP-high and ATP-low sub-populations of cells were isolated after vital staining with the probe ATP-Red 1. The ATP-high and ATP-low cell sub-populations were selected by gating, within the ATP-Red 1 signal. Unless otherwise stated, cells with the lowest (bottom 5% or 10%) fluorescent signal, or the highest (top 5% or 10%) fluorescent signal, were collected as ATP-low and ATP-high, respectively. The cells outside the gates were discarded during sorting, due to the gate settings. However, such settings are often required to ensure high-purity during sorting. Data were analyzed with FlowJo 10.1 software.
3D Anchorage Independent Growth Assay: A single cell suspension was prepared using enzymatic (lx Trypsin-EDTA, Sigma Aldrich, cat. #T3924), and manual disaggregation (25 gauge needle). Five thousand cells were plated with in mammosphere medium (DMEM-F12/B27/20ng/m1 EGF/PenStrep), under non-adherent conditions, in six wells plates coated with 2-hydroxyethylmethacrylate (poly-HEMA, Sigma, cat. #P3932). Cells were grown for 5 days and maintained in a humidified incubator at 37° C. at an atmospheric pressure in 5% (v/v) carbon dioxide/air. After 5 days, 3D spheroids with a diameter greater than 50 μm were counted using a microscope, fitted with a graticule eye-piece, and the percentage of cells which formed spheroids was calculated and normalized to one (1=100% MFE; mammosphere forming efficiency). […]

Experiment [2] concerns ATP-low MCF7 cells. Description: 3D-mammosphere assay, drug sensitivity of ATP-low MCF7 sub-population. Type of experiment: cell-based, human.
Description: as §1, §2
3D Anchorage Independent Growth Assay: A single cell suspension was prepared using enzymatic (lx Trypsin-EDTA, Sigma Aldrich, cat. #T3924), and manual disaggregation (25 gauge needle). Five thousand cells were plated with in mammosphere medium (DMEM-F12/B27/20ng/m1 EGF/PenStrep), under non-adherent conditions, in six wells plates coated with 2-hydroxyethylmethacrylate (poly-HEMA, Sigma, cat. #P3932). Cells were grown for 5 days and maintained in a humidified incubator at 37° C. at an atmospheric pressure in 5% (v/v) carbon dioxide/air. After 5 days, 3D spheroids with a diameter greater than 50 μm were counted using a microscope, fitted with a graticule eye-piece, and the percentage of cells which formed spheroids was calculated and normalized to one (1=100% MFE; mammosphere forming efficiency). Mammosphere assays were performed in triplicate and repeated three times independently.

`c1ccc2c(c1)[I+]c1ccccc1-2` [DPI, diphenyleneiodonium]: the “reduction of 3D-mammosphere formation” value in experiment [1] (ATP-high cells, 100 nM) is approximately 55%; in experiment [2] (ATP-low cells, 100 nM), more than 90%.
For `CC(=O)c1c(C)c2cnc(Nc3ccc(N4CCNCC4)cn3)nc2n(C2CCCC2)c1=O` [Palbociclib], the “reduction of 3D spheroid formation” value in experiment [1] (ATP-high cells, 12.5 nM) is given as -50%. In addition, the “reduction of 3D-mammosphere formation” value in experiment [2] (ATP-low cells, 12.5 nM) is listed as approximately 75%.
`CC/C(=C(\c1ccccc1)c1ccc(OCCN(C)C)cc1)c1ccccc1` [Tamoxifen]: the “3D-mammosphere formation, of the vehicle-treated control levels” value in experiment [1] (ATP-high MCF7 cells (top 5%), 5 μM) is listed as more than 80%. Further, the “reduction of 3D-mammosphere formation” value is given as approximately 40% in experiment [2] (ATP-low MCF7 cells (bottom 5%), 1 μM) and more than 90% in experiment [2] (ATP-low MCF7 cells (bottom 5%), 5 μM).
